{
  "source": "patent US6989140B2",
  "about": "“Methods for cancer imaging” (Threshold Pharmaceuticals, Inc., priority 2001, dated 2006)",
  "key": {"[1]": {"experiment": "Solubility of the isolated conjugate in methanol and water", "type": "physicochemical", "details": "isolated product after preparative TLC", "protocol": "More particularly, 2.2 mg (4 micromoles) of 6-((4,4-difluoro-5,7-dimethyl-4-bora-3a,4a-diaza-s-indacene-3-propionyl)amino)hexanoic acid, succinimidyl ester was dissolved in 0.3 ml of DMF followed by the addition of 6 mg (28 micromoles) of glucosamine HCL dissolved in 0.3 ml of water and 3.9 microliters (28 micromoles) of triethyl amine. The reaction was stirred for 24 hrs at room temperature, evaporated under reduced pressure, and dissolved in a minimum of methanol. This solution was spread on a preparative TLC plate (silica), dried, and developed with 2.5% water in acetonitrile. The plate was then dried and the product visualized with a UV light.\nAbout 4 mg (4.8 micromoles) of Texas Red®-X, succinimidyl ester *single isomer* (816.94 MW, Molecular Probes, T-20175) were dissolved in 1.2 ml of methanol and combined with 4 mg (18 micromoles) of glucosamine HCl (Sigma) in 600 microliters of water. About 2.5 microliters (18 micromoles) of triethylamine were then added. The reaction was stirred overnight at 20° C. and then evaporated under reduced pressure. The gum was dissolved in methanol and spread on a preparative TLC plate (silica), dried, and developed with 10% water in acetonitrile. The plate was then dried and the product visualized with a UV light. […] B. Synthesis of 5-(and 6) Carboxynaphtofluorescein Glucosamine Conjugate [drawing 12]\nAbout 8.3 mg (14 micromoles) of 5-(and-6)-carboxynaphthofluorescein, succinimidyl ester *mixed isomers* (MW 573.51, Molecular Probes, C-653) were dissolved in 2 ml of DMF, and 10 mg (46 micromoles) of glucosamine HCl (Sigma) in 1 ml of water was added. About 5.8 microliters (46 micromoles) of triethylamine were then added. The reaction was stirred overnight at 20° C. and then evaporated under reduced pressure. The gum was dissolved in 25% water in methanol and spread on a preparative TLC plate (silica), dried, and developed with 10% water in acetonitrile. The plate was then dried and the product visualized with a UV light. […] C. Synthesis of Glucosamine N-Methylanthranilamide Conjugate [drawing 13]"}, "Raji lymphoma cells": {"system": "Raji lymphoma cells", "experiment": "2-NBDG uptake in Raji lymphoma cells versus peripheral blood white cells (PBMC)", "type": "cell-based", "details": "Raji lymphoma cells vs PBMC; 200 uM; 40 min; 37° C.; fluorescence plate reader (FIG. 2)", "protocol": "Raji cells from culture one t-75 flask. Peripheral blood white cells from Stanford Blood Bank. Leukocytes were further separated by Ficoll separation (twice). These cells are referred to as PBMC (peripheral blood mononuclear cells). Phosphate-buffered saline. 2-NBDG, 0.1 M in water.\nCulture medium with cells (either Raji or PBMC, 15 mL) were centrifuged for 10 min at 800×g. The pellet of cells was resuspended in PBS and centrifuged for 10 min at 800×g, and the resulting pellet was resuspended in 1.5 mL PBS. Cells were counted and adjusted to 1×10^6 per mL for both. Aliquots (100 uL) were placed into each of 2 tubes for each cell type, and the tubes were incubated at 37° C. for 15 min. The fluorescent deoxyglucose conjugate 2-NBDG was added to each tube to provide a concentration of 200 uM. At 40 min, the tubes were removed from the 37° C. bath and immediately placed on ice. The cells were washed twice with PBS and resuspended in 100 uL of PBS. A 20 uL aliquot was placed in each of 5 wells of an LJL 96-well plate, and fluorescence was counted by a LJL plate reader."}},
  "data": [
    {"smiles": "O=C(NC1C(O)OC(CO)C(O)C1O)c1ccc(C(=O)O)c(-c2c3ccc4cc(O)ccc4c3oc3c2ccc2cc(=O)ccc23)c1", "note": "(centres unmarked)", "values": [
      {"measurement": "solubility in methanol", "setting": "[1]", "value": "soluble"},
      {"measurement": "solubility in water", "setting": "[1]", "value": "sparingly soluble"}
    ]},
    {"smiles": "O=C(CCCCCNS(=O)(=O)c1ccc(C2=c3cc4c5c(c3Oc3c2cc2c6c3CCCN6CCC2)CCC[N+]=5CCC4)c(S(=O)(=O)[O-])c1)NC1C(O)OC(CO)C(O)C1O", "note": "(single isomer, unassigned) [Texas Red Glucosamine Conjugate]", "values": [
      {"measurement": "solubility in methanol", "setting": "[1]", "value": "soluble"},
      {"measurement": "solubility in water", "setting": "[1]", "value": "sparingly soluble"}
    ]},
    {"smiles": "O=C[C@H](Nc1ccc([N+](=O)[O-])c2nonc12)[C@@H](O)[C@H](O)[C@H](O)CO", "note": "[2-NBDG, 2-(N-(7-nitrobenz-2-oxa-1,3-diazol-4-yl)amino)-2-deoxyglucose]", "values": [
      {"measurement": "uptake by a cancer cell as compared to a normal cell", "setting": "Raji lymphoma cells", "value": "preferred uptake"}
    ]}
  ]
}
